Article PMC9654711, “Neuroprotective Action of Coumarin Derivatives through Activation of TRKB-CREB-BDNF Pathway and Reduction of Caspase Activity in Neuronal Cells Expressing Pro-Aggregated Tau Protein” (International Journal of Molecular Sciences, 2022)

Assays:
[1] = Oxygen radical antioxidant capacity (ORAC) assay; conditions: compound at 100 μM
Experimental: In addition, an oxygen radical antioxidant capacity (ORAC) assay was performed using an OxiSelect™ kit according to the manufacturer’s instruction (Cell Biolabs, San Diego, CA, USA). Briefly, Trolox standards (2.5–50 μM) and samples (4–100 μM) were diluted with 50% acetone. Blank (50% acetone), standards and samples were mixed with fluorescein and incubated at 37 °C for 30 min. Following the free radical initiator 2,2′-azobis(2-methylpropionamidine) dihydrochloride (AAPH), the produced peroxyl radicals (ROO•) quench the fluorescent probe over time. Antioxidants present in the assay block the peroxyl radical oxidation of the fluorescent probe. The course of the reaction was recorded for 60 min, with one measurement every five minutes using a BioTek FLx800 microplate reader. The excitation and emission wavelengths were set at 480 nm and 520 nm, respectively. To quantify the oxygen radical antioxidant activity in a sample, the area under the curve (AUC) for blank, standard and samples was calculated. After subtraction of the blank, the equivalent Trolox concentrations of samples were expressed based on the Trolox standard curve.

[2] = system: ΔK280 tauRD-DsRed SH-SY5Y cells; assay: Neurite outgrowth in cells infected with TRKB-specific or scrambled shRNA; format: cell-based, human; conditions: scrambled shRNA; 10 µM
Experimental: As described, ∆K280 tauRD-DsRed SH-SY5Y cells were seeded in a 24-well plate (5 × 10^4/well) with retinoic acid addition on day 1, treated with tested compounds (10 µM) and ∆K280 tauRD-DsRed expression was induced with doxycycline (2 μg/mL) on day 2. On day 8, after being fixed in 4% paraformaldehyde for 15 min, permeabilized in 0.1% Triton X-100 for 10 min and blocked in 3% bovine serum albumin (BSA) for 20 min, the cells were stained with TUBB3 (neuronal class III β-tubulin) primary antibody (1:1000; BioLegend, San Diego, CA, USA) at 4 °C overnight, followed by goat anti-rabbit Alexa Fluor® 555 secondary antibody (1:1000; Molecular probes) at room temperature for 2 h, with 4′-6-diamidino-2-phenylindole (DAPI, 0.1 µg/mL; Sigma-Aldrich) included for nuclei staining. Neuronal images were captured using the high-content analysis system as described. Neurite total length (μm), processes (primary neurite extensions projecting directly from the cell body) and branching (points at which primary neurites bifurcated) were analyzed using Neurite Outgrowth Application Module (MetaXpress; Molecular Devices). Around 5000 cells were analyzed in each of three independent experiments for each sample.
Lentiviral short hairpin RNA (shRNA) targeting TRKB (TRCN0000002243, TRCN0000002245 and TRCN0000002246) and a negative control scrambled (TRC2.Void, ASN000001) from National RNAi Core Facility, IMB/GRC, Academia Sinica, Taipei, Taiwan were applied to knock down TRKB expression in ∆K280 tauRD-DsRed SH-SY5Y cells. On day 1, cells were plated on 6-well (for protein analysis) or 24-well (for neurite outgrowth analysis) plates in the presence of retinoic acid as described. On day 2, the cells were infected with lentivirus (multiplicity of infection of 3 for each shRNA) in medium containing polybrene (8 µg/mL; Sigma-Aldrich) to increase the efficiency of viral infection. […] On day 9, the cells were collected for TRKB protein analysis or analyzed for neurite outgrowth as described.

p-CREB (S133) = assay: Immunoblot of p-CREB (S133); format: cell-based, human
Experimental: (§1) ∆K280 tauRD-DsRed SH-SY5Y cells in 6-well plates (5 × 10^5/well) were treated with retinoic acid (10 µM) on day 1, followed by LMDS-1 or -2 (10 µM) and doxycycline (2 µg/mL) addition on day 2 as described. ERK inhibitor U0126 or PI3K inhibitor wortmannin (10 μM) (LC Laboratories, Woburn, MA, USA) was added on day 6. On day 8, the cells were collected for BDNF, BCL2, BAX and total/phosphorylated TRKB, ERK, AKT, CREB protein analyses as described.
∆K280 tauRD-DsRed SH-SY5Y cells were lysed in buffer containing 50 mM Tris-HCl (pH 8.0), 150 mM NaCl, 1 mM EDTA (pH 8.0), 1 mM EGTA (pH 8.0), 0.1% SDS, 0.5% sodium deoxycholate, 1% Triton X-100 and protease (Sigma-Aldrich)/phosphatase (Roche, Basel, Switzerland) inhibitor cocktails. After two sonications with an interval of 30 min on ice, cell lysates were collected by centrifugation at 14,000× g for 30 min at 4 °C. Protein concentrations were determined using a Bradford assay (Bio-Rad, Hercules, CA, USA). Protein samples (25 µg) were separated by 10–12% SDS-PAGE and transferred to polyvinylidene difluoride (PVDF) membranes (Sigma-Aldrich). After blocking for 2 h with 10% skimmed milk or 5% BSA in 0.1% Tween 20 in Tris-buffered saline (TBST), the membrane was incubated with primary antibody against BDNF (1:500; Santa Cruz, Santa Cruz, CA, USA), BCL2 (1:500; BioVision), BAX (1:500; BioVision), TRKB (1:1000; Cell Signaling, Danvers, MA, USA), p-TRKB (Y516) (1:1000; Cell Signaling), p-TRKB (Y817) (1:1000; Millipore, Billerica, MA, USA), ERK (1:1000; Cell Signaling), p-ERK (T202/Y204) (1:500; Cell Signaling), AKT (1:1000; Cell Signaling), p-AKT (S473) (1:1000; Cell Signaling), CREB (1:1000; Santa Cruz), p-CREB (S133) (1:1000; Millipore), JNK (1:1000; Cell Signaling), p-JNK (T183/Y185) (1:1000; Cell Signaling) or loading control glyceraldehyde-3-phosphate dehydrogenase (GAPDH) (1:1000; MDBio, Taipei, Taiwan). After three washes with TBST, the immune complexes were detected using horseradish peroxidase-conjugated goat anti-mouse or goat anti-rabbit secondary IgG antibody (1:5000, GeneTex, Irvine, CA, USA) and enhanced chemiluminescence substrates luminol and peroxide (Millipore). The primary and secondary antibodies used were diluted with TBST. The chemiluminescent detection was performed on ImageQuant™ LAS 4000mini (GE Healthcare).

m-BDNF (13 kDa) = assay: Immunoblot of m-BDNF; format: cell-based, human; conditions: 10 µM; induced untreated 69%
Experimental: as §1
∆K280 tauRD-DsRed SH-SY5Y cells were lysed in buffer containing 50 mM Tris-HCl (pH 8.0), 150 mM NaCl, 1 mM EDTA (pH 8.0), 1 mM EGTA (pH 8.0), 0.1% SDS, 0.5% sodium deoxycholate, 1% Triton X-100 and protease (Sigma-Aldrich)/phosphatase (Roche, Basel, Switzerland) inhibitor cocktails. After two sonications with an interval of 30 min on ice, cell lysates were collected by centrifugation at 14,000× g for 30 min at 4 °C. Protein concentrations were determined using a Bradford assay (Bio-Rad, Hercules, CA, USA). Protein samples (25 µg) were separated by 10–12% SDS-PAGE and transferred to polyvinylidene difluoride (PVDF) membranes (Sigma-Aldrich). […] After three washes with TBST, the immune complexes were detected using horseradish peroxidase-conjugated goat anti-mouse or goat anti-rabbit secondary IgG antibody (1:5000, GeneTex, Irvine, CA, USA) and enhanced chemiluminescence substrates luminol and peroxide (Millipore). […]

[3] = 10 µM, induced untreated 78%, Figure 5C
[4] = BDNF 100 ng/mL, LMDS-1/2 10 μM, induced untreated 72%, Figure 6B

For O=C(c1ccccc1)c1cc2c(O)cccc2oc1=O [LM-031, 3-benzoyl-5-hydroxychromen-2-one], the “Oxygen radical absorbance capacity, activity equivalent to Trolox” value (“Oxygen radical absorbance capacity” below) [1] was 51 μM Trolox and the Neurite branching [2] was 1.05–1.07.
In the case of O=C(c1ccccc1)c1cc2ccc(O)cc2oc1=O [LMDS-2], the “Oxygen radical absorbance capacity” value [1] is reported as 15 μM Trolox, the Neurite branching [2] is reported as 1.05–1.07 and the p-CREB level (p-CREB (S133); [3]) is reported as 105–108%. The p-CREB level (p-CREB (S133); [4]) was 90–95% and the m-BDNF level (m-BDNF (13 kDa)) was 97–102%.
For CCOc1ccc2cc(C(=O)c3ccccc3)c(=O)oc2c1 [LMDS-1], the “Oxygen radical absorbance capacity” value [1] was 10 μM Trolox, the Neurite branching [2] was 1.05–1.07 and the p-CREB level (p-CREB (S133); [3]) was 105–108%. The p-CREB level (p-CREB (S133); [4]) was 90–95% and the m-BDNF level (m-BDNF (13 kDa)) was 97–102%.
